Source: ChEMBL document CHEMBL1122804, “Synthesis of imidazo[1,2-a]pyrazine derivatives with uterine-relaxing, antibronchospastic, and cardiac-stimulating properties” (1984)

Species: Cavia porcellus
Experiment: Inhibition of the bronchospasm induced by histamine in guinea pig at the high concentration/dose.
Format: functional
Settings: not given
In the case of CCOC(=O)c1cn2cc(Br)nc(Br)c2n1, the ED50 is reported as >0.016 µM.

Species: Cavia porcellus
Experiment: Inhibition of the bronchospasm induced by histamine in guinea pigat the high concentration / dose
Format: functional
Settings: not given
In the case of ClCc1cn2ccncc2n1, the ED50 is reported as >0.072 µM.

Species: Rattus norvegicus
Experiment: Inhibition of the uterine smooth muscle contraction induced by histamine on the isolated rat uterus
Format: functional
Settings: read-out: ED50 (the source's name)
For c1cn2ccnc2cn1, the EC50 was 0.0016 µM.

Species: Rattus norvegicus
Experiment: Inhibition of the uterine smooth muscle contraction induced by histamine on the isolated rat uterus at high dose
Format: functional
Settings: read-out: ED50 (the source's name)
In the case of COC(=O)c1cn2ccncc2n1, the EC50 is reported as > 0.0024 µM.

Species: Rattus norvegicus
Experiment: Inhibition of the uterine smooth muscle contraction induced by histamine on the isolated rat uterus at high dose /concentration.
Format: functional
Settings: read-out: ED50 (the source's name)
Work on NC(=O)c1cn2cc(Br)nc(Br)c2n1 yielded an EC50 of 0.00033 µM.

Species: Rattus norvegicus
Experiment: Inhibition of the uterine smooth muscle contraction induced by histamine on the isolated rat uterus.
Format: functional
Settings: read-out: ED50
CCOC(=O)c1[nH]c2nccnc2c1C was tested, and the EC50 was 102 µM.
For Brc1cncc2nccn12, the EC50 was 290 µM.
CCOC(=O)c1cn2cc(Br)nc(Br)c2n1 was tested, and the EC50 was 150 µM.
Brc1cn2ccnc2c(Br)n1 was tested, and the EC50 was 240 µM.
N#Cc1cn2ccncc2n1 was tested, and the EC50 was 2380 µM.
For NC(=O)c1cn2ccncc2n1, the EC50 was 1500 µM.
With CCOC(=O)c1c(C)nc2cnccn12 the EC50 was 152 µM.
ClCc1cn2ccncc2n1 showed an EC50 of 1400 µM.
N#Cc1cn2c(Br)cncc2n1 was tested, and the EC50 was 780 µM.
NC(=O)c1cn2c(Br)cncc2n1 gave an EC50 of 410 µM.
With CCOC(=O)Cc1cn2cc(Br)nc(Br)c2n1 the EC50 was 96 µM.
CC(=O)c1c(Cl)nc2cnccn12 gave an EC50 of 880 µM.
Work on CCOC(=O)c1cn2ccncc2n1 yielded an EC50 of 1110 µM.
Work on Cc1cn2ccncc2n1 yielded an EC50 of 750 µM.
CCOC(=O)c1cn2c(Br)cncc2n1 gave an EC50 of 1020 µM.
Work on O=C(O)c1cn2ccncc2n1 yielded an EC50 of 1720 µM.
OCc1cn2ccncc2n1 gave an EC50 of 2700 µM.
With Cn1c(=O)c2nc[nH]c2n(C)c1=O [THEOPHYLLINE] the EC50 was 900 µM.

Species: Rattus norvegicus
Experiment: Inhibition of the uterine smooth muscle contraction induced by histamine on the isolated rat uterus at high dose.
Format: functional
Settings: read-out: ED50 (the source's name)
Nc1nc2cnccn2c1Br was tested, and the EC50 was 0.34 nM.
Work on N#Cc1cn2cc(Br)nc(Br)c2n1 yielded an EC50 of 0.09 nM.
